pIC50: −log10 of the molar value.
Tests used:
[1] = biological target: T1, dihydroceramide 4,5-desaturase (Homo sapiens, UniProt O15121); experiment: Conversion of dhCCPS analogs to CCPS analogs in MCF7 cells; format: cell-based; conditions: MS
T1 construct: dihydroceramide 4,5-desaturase in MCF7 cells to generate the corresponding CCPS analogs; endogenous in cells; host or cells: MCF7
T1 sequence (O15121 1-323): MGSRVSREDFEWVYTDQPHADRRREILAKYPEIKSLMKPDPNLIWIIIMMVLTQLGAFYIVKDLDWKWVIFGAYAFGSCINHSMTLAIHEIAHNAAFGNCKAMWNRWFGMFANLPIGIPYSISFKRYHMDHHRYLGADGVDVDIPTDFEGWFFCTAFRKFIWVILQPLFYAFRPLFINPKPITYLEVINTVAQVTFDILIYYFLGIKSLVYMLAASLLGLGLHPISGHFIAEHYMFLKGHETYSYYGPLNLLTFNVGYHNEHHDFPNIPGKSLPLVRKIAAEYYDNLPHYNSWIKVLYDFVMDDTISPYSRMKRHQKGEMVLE
Source text: Absolute levels (pmol) of dhCCPS and CCPS analogs was established by MS approach as shown in the Examples (see Section 6). Data are expressed as changes of particular dhCCPS and CCPS to the total level of dhCCPS+CCPS (100%).

MCF7 cells = conditions: 5 μM, 5 h
Protocol: FIGS. 4A-4C show the cellular levels of CCPS analogs. MCF 7 cells were treated with 5 μM concentration of CCPS analogs over the time and cellular level of the nonmetabolized CCPSs was measured by MS methodology as shown under Experimental. Results are expressed as % of concentration applied.
A parallel set of cells was used to determine cell proliferation and to prepare lipid extracts for MS analysis.
Briefly, for the indicated points, media was removed, cells were washed twice with PBS, scraped into cold PBS (2×1.0 ml), transferred to glass vials and centrifuged for 5 min at 800 rpm. Cell pellets corresponding to ˜1×10^6 cells, were fortified with the internal standards IS (C17 base D-erythro-sphingosine: 17Sph, C17 sphingosine-1-phosphate: 17Sph-1P, N-palmitoyl-D-erythro-C13 sphingosine: 13CC16-Cer and N-heptadecanoyl-D-erythro-C17shingosine: 17CC17-Cer) and extracted (2×2 ml) into a one-phase solvent system with ethyl acetate/iso-propanol/water (60/30/10 v/v). One ml of this extract was used for Pi determination after lipid re-extraction by the Bligh and Dyer method. Remaining lipid extract was evaporated, reconstituted in 100 μl of methanol, and samples were injected on the Surveyor/TSQ 7000 LC/MS system and gradient eluted from the BDS Hypersil C8, 150×3.2 mm, 3 μm particle size column, with 1.0 mM methanolic ammonium formate/2 mM aqueous ammonium formate mobile phase system. Peaks corresponding to the target analytes and IS were collected and processed using the Xcalibur software system.
Cellular level of CCPS analogs was established by MS methodology.

[2] = system: MCF7 breast carcinoma cells; experiment: Cell proliferation and viability, Trypan blue exclusion assay; format: cell-based; conditions: 48 h treatment; read-out: IC50, inhibitory effect on MCF7 cell growth
Protocol: FIGS. 5A-5F show the dose dependent effects of CCPS analogs on survival of MCF7 breast carcinoma cells in comparison to the activity of D-e-C6-ceramide, which is commonly used as a model of ceramide action. Cell proliferation and cell viability were determined by Trypan blue exclusion assay. These assays were performed using duplicate samples in two or three independent experiments.
Cell Proliferation: Cells were seeded into plates at a density of approx. 50% corresponding to 1×10^6 cells, in 10 ml of 10% FCS and after an over night incubation the cells were treated with LCL compounds at concentration 0-20 μM in ethanol (ethanol level was kept below 0.1%) and the changes in cell numbers after 48 h were determined and expressed as a percentage of the untreated controls.
Briefly, media was removed, cells were washed twice with PBS, detached using 1% Trypsin and centrifuged at 800 rpm. Cell pellets were resuspended in PBS and Trypan blue (Sigma Chemicals, St. Louis, Mo., USA) was added (1:1 dilution). Under light microscope, the percentage of unstained and stained cells was assessed.
To examine the anticancer activity of CCPS analogs of the invention, their inhibitory effect on MCF7 breast carcinoma cells were analyzed and compared to the activity of D-e-C6-ceramide, which is commonly used as a model of action for ceramides. Cell proliferation and cell viability were determined by Trypan blue exclusion assay.

[3] = Solubility of ceramides and ceramidoids in water
UM-SCC-22A xenografts = conditions: 40 mg/kg/each IP every 4 days for 20 days
Protocol: A) Upper Panel: In vivo therapeutic efficacy of L-t-C6-Pyr-Cer in combination with GMZ was determined in SKID mice harboring the UM-SCC-22A xenografts implanted in both flanks. The animals were treated with L-t-C6-Pyr-Cer and GMZ at 40 mg/kg/each every 4 days for 20 days. […] In these experiments, each group contained 6 mice, harboring 12 tumors, in this study. Error bars represent standard deviations, and p values were calculated. […] C) The blood counts, the levels of serum enzymes, and electrolytes were analyzed in response to L-t-C6-Pyr-Cer alone or in combination with GMZ in SKID mice.
After tumors were grown to about 200-400 mm^3 (about two weeks after implantation), the mice were treated without or with chemotherapeutic agents with intraperitoneal (IP) injection (alone or in combination) at half of their maximum tolerated doses (MTD) every 4 days for 20 days. Tumor volumes and the weights of the animals were measured before each treatment, and tumor sizes were measured at the end of the study. The endpoint was tumor rate of growth and/or tumor volume, which was calculated using the formula: length×width^2×0.52. Each experiment included at least 6 mice (which harbored two SCC tumors in flanks) per each treatment, and experiments were done at least in two independent trials.

telomeres = experiment: Telomere length (TRF) in tumor tissues; format: in vivo, human; conditions: versus untreated controls
Source text: FIG. 29. […] In (B), DNA samples obtained from tumors treated with GMZ (G), L-t-C6-Pyr-Cer (Cer), and the combination of L-t-C6-Pyr-Cer with GMZ (G/C, lanes 2-4, respectively) were compared to that of untreated (U) tumors (lane 1). Lanes 5 and 6 contain DNA samples with low (L) and high (H) molecular weight (3.9 and 10.2 kb, respectively) telomeres. In (D) The levels of hTERT protein in samples obtained from tumors treated with GMZ (G), L-t-C6-Pyr-Cer (Cer), and the combination of L-t-C6-Pyr-Cer with GMZ (G/Cer, lanes 2-4, respectively) were determined by Western blot analysis using rabbit polyclonal anti-hTERT antibody, and compared to that of untreated (U) tumors (lane 1). Lanes 5 and 6 contain samples from telomerase positive (+) and negative (−) extracts. Beta-actin levels of these samples were used as loading controls (lanes 1-6, lower panel). The data shown are representative of two independent trials, and error bars represent standard deviations.
Analysis of telomere length in tumor tissues. The measurement of telomere length was performed in total genomic DNA samples isolated from tumor tissues of the SCID mice using Telomere Restriction Fragment (TRF) Length measurement kit (Roche) by Southern blotting as described in Sundararaj, et al. J Biol Chem 2004; 279:6152-6162.

UM-SCC-22A cells = experiment: MTT cell survival assay and isobologram studies; format: cell-based, human; conditions: Homo sapiens, read-out: IC50 of chemotherapeutic agents
telomerase = experiment: Telomerase activity (TRAP) in treated cells; format: cell-based, human; conditions: UM-SCC-22A, 48 hr, C6-Pyr-Cer 1 μM, GMZ 100 nM
Protocol: FIGS. 13A to 13B. Roles of CCPS on cell cycle profiles, and telomerase activity of UM-SCC-22A cells. (FIG. 13A) The effects of D-e-C6—, D-e-C12- and L-th-C12-pyridinium ceramides (at 1 μM for 48 hr) on cell cycle profiles of UM-SCC-22A cells were determined and compared to that of untreated cells using flow cytometry as described in Materials and Methods. (FIG. 13B) The effects of 0, 100, 250 and 500 nM L-t-C6-Pyr-Cer (LCL-124) (lanes 1-4, respectively) at 96 hr treatment in UM-SCC-22A cells on telomerase activity was assessed using TRAP assay. Lanes 5 and 6 contain positive (+) and negative (−) controls. To examine whether C6-Pyr-Cer inhibits telomerase activity directly, cell extracts (as shown in lane 1) were incubated in the presence of various concentrations of L-th-C6-Pyr-ceramide (LCL-124; 10, 20 and 100 μM) and telomerase activity was determined using TRAP assay (lanes 7-9, respectively). The presence of non-telomeric 36 bp internal standard (IS) in the TRAP assay serves as a control for polymerase chain reaction, and used for quantitation/normalization of the activity of telomerase. The results shown are representative of at least two independent experiments.
FIGS. 14A to 14D. […] (FIG. 14A) The effects of various chemotherapeutic agents on cell growth in UM-SCC-22A cells were determined using MTT assays, and the IC50 concentrations of each agent were determined from cell growth plots as described. (FIG. 14B) The synergistic effects of DOX and L-th-C6-Pyr-Cer (LCL-124) on cell growth were assessed using isobologram studies as described in Materials and Methods. (FIG. 14C) The effects of 1 μM L-th-C6-Pyr-Cer (LCL-124) or cetyl-pyridinium-bromide, without ceramide conjugate (used as a control) on the growth inhibition potential of GMZ in UM-SCC-22A cells were determined using MTT assays. (FIG. 14D) The effects of GMZ (100 nM), L-th-C6-Pyr-Cer (LCL-124; 1 μM) or GMZ and L-th-C6-Pyr-Cer (LCL-124) (100 nM and 1 μM, respectively) on telomerase activity in UM-SCC-22A cells at 48 hr were examined using TRAP assay, and compared to that of untreated controls (lanes 2, 3, 4 and 1, respectively). The data shown are representative of at least two independent experiments performed in triplicate samples. Standard deviations in each sample were between 0.1-0.5.
Determination of telomerase activity. Telomerase activity in cell extracts was measured by the PCR-based telomere repeat amplification protocol (TRAP) using TRAPeze kit (Intergen, Gaithersburg, Md.) which includes a 36-bp internal control to allow quantification of activity. In short, the intensity of telomere-specific DNA bands, measured using Quantity One (BioRad) software, were normalized to the intensity of internal control bands for each sample on polyacrylamide gels for quantification.

[4] = mice; cited from earlier work
[5] = system: L929 mouse fibroblast cells; experiment: TNFα-induced PGE2 release; format: cell-based
Source text: Interleukin-1 is a major inducer of inflammation and TNF is an important regulator of the reaction. Both cytokines can activate ceramidase, and thus inhibiting the activity of ceramidase can result in an anti-inflammatory effect. This may involve the prevention of the formation of sphingosine and sphingosine phosphate which have pro-inflammatory effects. Also, inhibition of ceramidase may prevent the hyperproliferation of immune cells that are important for inflammation. […] The release of PGE2 is also shown to be inhibited by D-(N-myristolyamino)-1-phenyl-1-propanol), D-MAPP, which is an inhibitor of one of the ceramidase. This observation may be important for inhibiting inflammatory reactions that occur in conditions, such as but not limited to rheumatoid arthritis. Thus, it is possible to treat or prevent inflammation by regulating the level of cellular ceramide using the method of the invention. As discussed above, ceramide level can be increased by administering compounds of the present invention that can inhibit mitochondrial ceramidase.

SMILES: CCCCCCCCCCCCCCC[C@@H](O)[C@H](CO)NC(=O)CCCCCCCCCCC[n+]1ccccc1.[Br-] [LCL249, D-erythro-2-N-[12′-(1″-Pyridinium)-dodecanoyl]-4,5-dihydrosphingosine Bromide]
- metabolism of dhCCPS to the corresponding CCPS analog [1]: time dependent formation of C12-CCPS (LCL88)
- Cellular level, % of concentration applied (MCF7 cells): 7%

SMILES: CCCCCCCCCCCCCCC[C@@H](O)[C@H](CO)NC(=O)CCCCCCCCCCCCCCC[n+]1ccccc1.[Br-] [LCL345, D-erythro-2-N-[16′-(1″-Pyridinium)-hexadecanoyl]-4,5-dihydrosphingosine Bromide]
- pIC50 [2]: 5.60
- Solubility at 22° C. ([3]; 22° C.): 0.3 mg/mL
- Solubility at 22° C. ([mM]) ([3]; 22° C.): (0.42) mM
- Solubility at 37° C. ([3]; 37° C.): 1.4 mg/mL
- Solubility at 37° C. ([mM]) ([3]; 37° C.): (2.0) mM
- metabolism of dhCCPS to the corresponding CCPS analog [1]: time dependent formation of C16-CCPS (LCL30)
- Cellular level, % of concentration applied (MCF7 cells): 4%

SMILES: Nc1ccn([C@@H]2O[C@H](CO)[C@@H](O)C2(F)F)c(=O)n1 [GMZ, gemcitabine, reference compound]
- inhibition of HNSCC tumor growth (UM-SCC-22A xenografts): some inhibition of HNSCC tumor growth
- reduction of TRF (telomere) length in tumors (telomeres): ~200 bp
- pIC50 (UM-SCC-22A cells): 6.60 to 7.00
- inhibition of telomerase activity (telomerase): 50%
- MTD of reference drugs (known) [4]: 80 mg/kg

SMILES: CCCCCCCCCCCCCC(=O)NC(C)C(O)c1ccccc1 [D-MAPP]
- release of PGE2 [5]: inhibited

From patent publication US8093393B2, “Cationic ceramides, and analogs thereof, and their use for preventing or treating cancer” (MUSC Foundation for Research Development, priority 2004, dated 2012)
